Laboratory results as given in patent publication US20140221286A1, “SODIUM CHANNEL BLOCKERS REDUCE GLUCAGON SECRETION” (Gilead Sciences, Inc., priority 2011, published 2014).

Experiments:
rat pancreatic islets = assay: Epinephrine-induced glucagon secretion in rat pancreatic islets; type: cell-based; conditions: epinephrine 5 μM; at 30 μM
[1] = system: STZ-induced diabetic mice; assay: STZ-induced diabetic mouse, animal model of type 1 diabetes; type: in vivo
Protocol: Streptozotocin (STZ) induces diabetes by selectively destroying the pancreatic β-cells. Five-week old male C57BL/6J mice were injected with STZ (40 mg/kg, i.p., dissolved in cold 0.025 mol/L sodium citrate-buffered solution at pH 4.5, freshly made right before injection) for 5 consecutive days to induce diabetes. Fasting plasma glucose (FPG) levels were determined 2 days after STZ treatment. Diabetic mice were then divided into STZ+vehicle and STZ+ranolazine group (10 mice/group) based on body weight (BW) and blood glucose levels. Age and gender matched non-diabetic mice were used as “normal” controls (n=3). For the following 8 weeks, mice were given either vehicle or ranolazine (20 mg/kg in water, p.o., twice daily). BW and FPG levels were monitored once a week. HbA1c levels were measured using a DCA 2000+ clinical analyzer (Siemens) at 0, 4 and 8 weeks of treatment. At the end of the treatment, pancreases from all groups were collected, fixed in 10% formalin overnight and then embedded in paraffin. HE staining and fluorescent staining were performed to review the islet morphology in all groups.

[2] = after 8 weeks treatment, fluorescence staining

SMILES: COc1ccccc1OCC(O)CN1CCN(CC(=O)Nc2c(C)cccc2C)CC1 (racemic) [Ranolazine, ±-N-(2,6-dimethylphenyl)-4-[2-hydroxy-3-(2-methoxyphenoxy)-propyl]-1-piperazineacetamide]
- reduction of epinephrine-induced increase of glucagon secretion (rat pancreatic islets): 44±8%
- fasting plasma glucose (FPG) ([1]; 20 mg/kg p.o. twice daily, week 4): 264 ± 30 mg/dL
- fasting plasma glucose (FPG) ([1]; 20 mg/kg p.o. twice daily, week 6 to week 8): 188 ± 20 mg/dL
- HbA1c ([1]; 20 mg/kg p.o. twice daily, week 8): 4.6±0.2%
- insulin-positive area per islet [1, 2]: 69±2.4%
- percentage of total islet (insulin and glucagon) area [1, 2]: 0.30±0.03%
